Key:
HCT116 cells = assay: Cell viability assay (MTT); type: cell-based, human; details: for IC50: determined after 48 h (n = 4)
Procedure: (§1) Human colon adenocarcinoma HCT116 cells were purchased from ATCC (Manassas, Va.) and cultured in Dulbecco's modified Eagle's medium (Invitrogen, Carlsbad, Calif.) supplemented with 10% fetal bovine serum (HyClone, Logan, Utah) at 37° C. humidified air and 5% CO2.
HCT116 cells were seeded at a density of 1×10^4 cells per well in 96-well plates. 24 h later the cells were treated with various concentrations of apratoxins or solvent control. After 48 h of incubation, cell viability was detected using MTT according to the manufacturer's instructions (Promega, Madison, Wis.).

[1] = tested on: met proto-oncogene (MET) receptor; assay: Immunoblot analysis for RTK (MET) levels in HCT116 cells; type: cell-based, human; details: for activity compared with apratoxin S4 (BK) in all biological assays: HCT116, MET levels, cell viability, VEGF-A secretion
Procedure: HCT116 cells were seeded in 6-well plates at a density of 4×10^5 cells and the next day treated with various concentrations of apratoxins or solvent control. 24 h later, whole cell lysates were collected using PhosphoSafe buffer (EMD Chemicals, Inc, Gibbstown, N.J.). The protein concentration was measured with the BCA Protein Assay kit (Thermo Fisher Scientific, Rockford, Ill.). Lysates containing equal amounts of protein were separated by SDS polyacrylamide gel electrophoresis (4-12%), transferred to polyvinylidene difluoride membranes, probed with primary and secondary antibodies, and detected with the SuperSignal West Femto Maximum Sensitivity Substrate (Thermo Fisher Scientific). Anti-Met and secondary anti-mouse antibodies were from Cell Signaling Technology, Inc. (Danvers, Mass.).

VEGF-A secretion = assay: Measurement of VEGF-A production (alphaLISA) in HCT116 culture supernatants; type: cell-based, human; details: for IC50: determined after 12 h (n = 3)
Procedure: as §1
HCT116 cells (1×10^4 cells per well) were seeded in 96-well plates and one day later treated with various concentrations of apratoxins or solvent control. After 12 h of incubation, culture supernatants were collected for detection of VEGF-A by using an alphaLISA kit (PerkinElmer, Waltham, Mass.) following the manufacturer's instructions. Briefly, acceptor bead and anti-VEGF antibody were incubated first with the supernatants for 60 min, donor beads were added later and incubated for another 30 min and then VEGF-A levels detected using Envision (PerkinElmer).

HCT116 xenograft = assay: In vivo efficacy, HCT116 xenograft mouse model
Procedure: 3-5 week old female nude mice (nu/nu) were obtained from Charles River Laboratory (Wilmington, Mass.). 1×10^6 HCT116 cells in a volume of 100 μL of sterile saline were injected subcutaneously on the left rear flank of a nude mouse to establish tumors. Tumor dimensions were measured using calipers every day and tumor volumes were calculated using the formula W^2×L×0.5, where width (W)≤length (L). Tumors with a starting volume bigger than 100 mm^3 were excluded from the analysis. Mice were injected intraperitoneally with the doses of 2 μg/mouse (0.1 mg/kg), 5 μg/mouse (0.25 mg/kg) of apratoxin S8 (BM) or solvent (DMSO) control every day until the tumor size in one dimension reached 15 mm and tumor tissue was harvested on the following day. 50 mg of tumor tissue was sonicated in PhosphoSafe lysis buffer (EMD chemicals, Inc) and used for immunoblot analysis described as the above. All studies were carried out under the protocol approved by the Institutional Animal Care and Use Committee at the University of Florida.

| SMILES | IC50 (HCT116 cells) [nM] | activity compared with apratoxin S4 (BK) in all biological assays [1] | IC50 (VEGF-A secretion) [nM] | dose dependence of tumor growth inhibition (HCT116 xenograft; 0.1 and 0.25 mg/kg daily i.p.) | signs of toxicity (weight loss, abnormal behavior) (HCT116 xenograft; 0.1 and 0.25 mg/kg daily i.p., nude mice) | effect on tumor growth (HCT116 xenograft; higher dose 0.25 mg/kg daily i.p., about 2 weeks) | tumor growth inhibition (HCT116 xenograft; lower dose 0.1 mg/kg daily i.p., about 2 weeks) | potency relative to the other apratoxins, cell viability (HCT116 cells) | potency in reducing levels of MET receptor ([1]; HCT116, immunoblot, 24 h, FIG. 1) | potency relative to the other apratoxins, MET levels ([1]; HCT116, immunoblot, FIG. 1) | potency relative to the other apratoxins, VEGF-A secretion (VEGF-A secretion) |
| --- | --- | --- | --- | --- | --- | --- | --- | --- | --- | --- | --- |
| CC[C@H](C)[C@H]1C(=O)N2CCC[C@@H]2C(=O)O[C@H](C(C)(C)C)C[C@@H](C)C[C@H](O)CC2=N[C@@H](CCC(=O)N[C@@H](Cc3ccc(OC)cc3)C(=O)N(C)[C@@H](C)C(=O)N1C)CS2 [apratoxin S7 (BL), Apratoxin S7] | 1.25 | retained potent activity | 0.3 | – | – | – | – | – | – | – | – |
| CC[C@H](C)[C@H]1C(=O)N2CCC[C@@H]2C(=O)O[C@H](C(C)(C)C)C[C@@H](C)C[C@H](O)C(C)(C)C2=N[C@@H](CCC(=O)N[C@@H](Cc3ccc(OC)cc3)C(=O)N(C)[C@@H](C)C(=O)N1C)CS2 [apratoxin S8 (BM), Apratoxin S8] | 1.99 | retained potent activity | 0.47 | clear dose-dependent tumor growth inhibition | did not observe signs of toxicity | strongly retarded the tumor growth | about 50% | – | – | – | – |
| CC[C@H](C)[C@H]1C(=O)N2CCC[C@@H]2C(=O)O[C@H](C(C)(C)C)C[C@@H](C)C[C@H](O)[C@H](C)C2=N[C@H](CCC(=O)N[C@@H](Cc3ccc(OC)cc3)C(=O)N(C)[C@@H](C)C(=O)N1C)CS2 [apratoxin S9 (BN), Apratoxin S9] | 0.69 | retained potent activity | 0.12 | – | – | – | – | 2-3 fold | superior, picomolar (sub-nanomolar) potency | 2-3 fold | 2-3 fold |

Source: patent US11718645B2, “Macrocyclic therapeutic agents, methods of manufacture, and methods of treatment” (University of Florida Research Foundation, Incorporated, priority 2014, dated 2023)
